Measured values: ChEMBL document CHEMBL1136860, “Synthesis and 5-lipoxygenase inhibitory activity of new cinnamoyl and caffeoyl clusters” (Bioorg Med Chem Lett, 2009)
Activity calls are given as the source filed them. No cut-off for these calls is given here.

Legend:
Assay type in all cases: cell-based
[1] = target: T1, Polyunsaturated fatty acid 5-lipoxygenase (Homo sapiens) (UniProt P09917); assay: Inhibition of human 5LOX expressed in HEK293 cells at 1 uM
T1 sequence (whole entry): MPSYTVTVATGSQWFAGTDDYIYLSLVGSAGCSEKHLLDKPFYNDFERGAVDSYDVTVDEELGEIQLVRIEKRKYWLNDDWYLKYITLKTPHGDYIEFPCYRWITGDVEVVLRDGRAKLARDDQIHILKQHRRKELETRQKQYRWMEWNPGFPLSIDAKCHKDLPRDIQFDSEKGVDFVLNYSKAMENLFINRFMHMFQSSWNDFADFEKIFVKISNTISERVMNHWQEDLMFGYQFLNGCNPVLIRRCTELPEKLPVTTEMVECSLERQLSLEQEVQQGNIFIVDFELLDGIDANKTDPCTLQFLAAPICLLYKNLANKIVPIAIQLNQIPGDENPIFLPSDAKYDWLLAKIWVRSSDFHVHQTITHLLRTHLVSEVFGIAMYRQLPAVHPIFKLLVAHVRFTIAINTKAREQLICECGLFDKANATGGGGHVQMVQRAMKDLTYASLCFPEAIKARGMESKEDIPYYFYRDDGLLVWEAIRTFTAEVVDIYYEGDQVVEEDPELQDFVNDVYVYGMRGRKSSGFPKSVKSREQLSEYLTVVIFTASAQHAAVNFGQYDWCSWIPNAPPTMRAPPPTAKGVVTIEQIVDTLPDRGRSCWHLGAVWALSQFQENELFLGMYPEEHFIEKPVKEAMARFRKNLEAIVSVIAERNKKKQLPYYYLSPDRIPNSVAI

[2] = target: T2, Polyunsaturated fatty acid 5-lipoxygenase (Homo sapiens, UniProt P09917); assay: Inhibition of human 5LOX expressed in HEK293 cells
T2 sequence (P09917 whole entry): T1 sequence (whole entry)

[3] = target: T1, Polyunsaturated fatty acid 5-lipoxygenase (Homo sapiens); assay: Ratio of IC50 of caffeic acid to IC50 of compound for human 5LOX expressed in HEK293 cells

Activity [1]	inhibition [1] [%]	IC50 [2] [nM]	Ratio IC50 [3]	SMILES
Active				O=C(/C=C/c1ccccc1)OCCn1cc(COC(=O)/C=C/c2ccc(O)c(O)c2)nn1
	92	660	10.1	O=C(/C=C/c1ccc(O)c(O)c1)OCc1cn(CC(Cn2cc(COC(=O)/C=C/c3ccc(O)c(O)c3)nn2)(Cn2cc(COC(=O)/C=C/c3ccc(O)c(O)c3)nn2)Cn2cc(COC(=O)/C=C/c3ccc(O)c(O)c3)nn2)nn1
Active				O=C(/C=C/c1ccc(O)c(O)c1)OCCn1cc(COCC(COCc2cn(CCOC(=O)/C=C/c3ccc(O)c(O)c3)nn2)(COCc2cn(CCOC(=O)/C=C/c3ccc(O)c(O)c3)nn2)COCc2cn(CCOC(=O)/C=C/c3ccc(O)c(O)c3)nn2)nn1
Active		680	36.7	O=C(/C=C/c1ccc(O)c(O)c1)OCCn1cc(COC(=O)/C=C/c2ccccc2)nn1
Active				O=C(/C=C/c1ccc(O)c(O)c1)OCc1cn(CC(COCC(Cn2cc(COC(=O)/C=C/c3ccc(O)c(O)c3)nn2)(Cn2cc(COC(=O)/C=C/c3ccc(O)c(O)c3)nn2)Cn2cc(COC(=O)/C=C/c3ccc(O)c(O)c3)nn2)(Cn2cc(COC(=O)/C=C/c3ccc(O)c(O)c3)nn2)Cn2cc(COC(=O)/C=C/c3ccc(O)c(O)c3)nn2)nn1
Active		740	16.8	O=C(/C=C/c1ccc(O)c(O)c1)OCCn1cc(COC(=O)/C=C/c2ccc(O)c(O)c2)nn1
	91	790	10.5	O=C(/C=C/c1ccc(O)c(O)c1)OCc1cn(CC(CO)(Cn2cc(COC(=O)/C=C/c3ccc(O)c(O)c3)nn2)Cn2cc(COC(=O)/C=C/c3ccc(O)c(O)c3)nn2)nn1
